Reference: ChEMBL document CHEMBL1201862, “PubChem BioAssay data set” (2004)
The source made the active and inactive calls.

Key:
Coagulation factor XII = molecular target: T1, Coagulation factor XII (Homo sapiens, UniProt P00748); type: functional;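 note: activated factor XIIa alpha cleaving a fluorogenic AMC peptide substrate; inhibitor potency from loss of enzyme activity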
T1 sequence (P00748 whole entry): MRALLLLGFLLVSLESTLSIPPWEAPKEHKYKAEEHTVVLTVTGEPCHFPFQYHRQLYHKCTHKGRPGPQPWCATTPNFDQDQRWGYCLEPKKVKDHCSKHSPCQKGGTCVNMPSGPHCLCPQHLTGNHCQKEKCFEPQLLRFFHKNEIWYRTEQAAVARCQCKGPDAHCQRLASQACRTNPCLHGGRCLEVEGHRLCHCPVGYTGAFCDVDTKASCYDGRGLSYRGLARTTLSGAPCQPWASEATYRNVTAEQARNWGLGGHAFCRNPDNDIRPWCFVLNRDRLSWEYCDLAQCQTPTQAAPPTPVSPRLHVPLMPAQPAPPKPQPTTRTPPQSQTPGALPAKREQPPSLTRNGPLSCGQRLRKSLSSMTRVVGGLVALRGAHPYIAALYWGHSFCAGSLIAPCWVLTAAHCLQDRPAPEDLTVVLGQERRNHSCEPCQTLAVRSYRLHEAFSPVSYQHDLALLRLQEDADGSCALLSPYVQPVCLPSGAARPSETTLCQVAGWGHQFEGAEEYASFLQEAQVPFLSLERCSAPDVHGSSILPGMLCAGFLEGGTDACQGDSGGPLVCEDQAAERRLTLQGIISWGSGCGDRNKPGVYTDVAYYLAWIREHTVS

Prothrombin = Prothrombin (Homo sapiens, UniProt P00734); test: Thrombin 1536 HTS Dose Response Confirmation. [Related pubchem assays: 1046 (Thrombin 1536 HTS; hits were confirmed in this assay)]; type: functional
[1] = NIH-3T3 fibroblast cytotoxicity, dose response, cytotoxicity control, cell-based, fluorescence, Alamar Blue, secondary assay (AID 2327); type: functional;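 note: NIH-3T3 mouse fibroblasts cultured with fluconazole at 8 µg/mL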
[2] = fluconazole-exposed Candida albicans growth modulators – fluorescence, retest, confirmation (AID 2467); type: functional, cell-based
Vero [3] = test: cells; type: functional; conditions: Chlorocebus sabaeus
[4] = NIH3T3 cell viability loss – ATP luminescence, mouse fibroblasts, counter-screen, dose response (AID 2010); type: functional, cell-based;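 note: cells exposed to compound for about 90 hours before reading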
[5] = tested on: Streptococcus sp. 'group A'; test: Streptococcus pyogenes SK(-)GAS viability under kanamycin – luminescence, BacTiterGlo, confirmation, counter-screen for streptokinase expression inhibitor project, dose response (AID 1900); type: functional, organism-based
Streptococcus = test: GAS UMAA2166 growth inhibition – luminescence, BacTiterGlo, counter-screen for streptokinase expression inhibitor project, dose response (AID 1915); type: functional, organism-based;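 note: potency for reduction of bacterial viability or growth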
H9c2 = test: cells; type: functional, cell-based; conditions: Rattus norvegicus, H9c2, Myocardium
[6] = Trypanosoma cruzi growth suppression in host cells – NIH3T3 host cells, beta-gal luminescence, confirmation (AID 2044); type: functional, cell-based;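 note: intracellular parasites grown in NIH/3T3 mouse fibroblasts as host cells; luminescent beta-galactosidase reporter signal from transgenic T. cruzi replicating inside host cells; inhibitors lower the luminescence signal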
[7] = molecular target: T2, Short transient receptor potential channel 4 (Mus musculus, UniProt Q9QUQ5); test: block of DAMGO-driven TRPC4 calcium entry – cell-based, HEK293 TRPC4/mu-opioid, Fluo-4 calcium, dose response (AID 434942); type: functional;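 note: potency of inhibitors blocking the TRPC4 calcium response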
T2 sequence (Q9QUQ5 whole entry): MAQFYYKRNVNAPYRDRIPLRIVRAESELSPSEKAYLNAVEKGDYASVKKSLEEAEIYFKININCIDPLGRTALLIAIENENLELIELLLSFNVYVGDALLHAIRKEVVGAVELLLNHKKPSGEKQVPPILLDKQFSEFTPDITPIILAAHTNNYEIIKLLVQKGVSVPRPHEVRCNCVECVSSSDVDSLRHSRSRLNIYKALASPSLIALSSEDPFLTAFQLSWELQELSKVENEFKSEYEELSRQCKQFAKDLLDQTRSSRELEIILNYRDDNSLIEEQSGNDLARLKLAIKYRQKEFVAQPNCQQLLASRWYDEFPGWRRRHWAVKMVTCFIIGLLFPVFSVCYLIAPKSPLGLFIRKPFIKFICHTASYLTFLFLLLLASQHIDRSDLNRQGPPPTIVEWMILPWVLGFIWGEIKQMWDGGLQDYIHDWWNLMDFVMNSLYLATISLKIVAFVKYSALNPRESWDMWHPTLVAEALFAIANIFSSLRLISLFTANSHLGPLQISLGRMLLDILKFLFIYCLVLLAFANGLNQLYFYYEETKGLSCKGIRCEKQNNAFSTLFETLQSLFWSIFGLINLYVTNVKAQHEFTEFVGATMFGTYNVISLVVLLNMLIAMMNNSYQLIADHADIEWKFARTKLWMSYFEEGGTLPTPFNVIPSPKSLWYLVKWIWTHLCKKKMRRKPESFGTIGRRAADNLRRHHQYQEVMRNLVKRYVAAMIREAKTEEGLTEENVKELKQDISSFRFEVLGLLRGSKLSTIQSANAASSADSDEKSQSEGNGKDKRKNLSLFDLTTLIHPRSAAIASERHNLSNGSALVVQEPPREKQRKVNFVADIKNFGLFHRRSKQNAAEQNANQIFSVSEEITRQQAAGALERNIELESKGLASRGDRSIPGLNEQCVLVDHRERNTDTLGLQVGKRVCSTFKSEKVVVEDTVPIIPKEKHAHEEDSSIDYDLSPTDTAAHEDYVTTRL

Cytochrome P450 3A4 = Cytochrome P450 3A4 (Homo sapiens, UniProt P08684);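 note: CYP3A4 tested as one member of a cytochrome P450 panel screen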
Chain of Cytochrome P450 3A4 (P08684 whole entry): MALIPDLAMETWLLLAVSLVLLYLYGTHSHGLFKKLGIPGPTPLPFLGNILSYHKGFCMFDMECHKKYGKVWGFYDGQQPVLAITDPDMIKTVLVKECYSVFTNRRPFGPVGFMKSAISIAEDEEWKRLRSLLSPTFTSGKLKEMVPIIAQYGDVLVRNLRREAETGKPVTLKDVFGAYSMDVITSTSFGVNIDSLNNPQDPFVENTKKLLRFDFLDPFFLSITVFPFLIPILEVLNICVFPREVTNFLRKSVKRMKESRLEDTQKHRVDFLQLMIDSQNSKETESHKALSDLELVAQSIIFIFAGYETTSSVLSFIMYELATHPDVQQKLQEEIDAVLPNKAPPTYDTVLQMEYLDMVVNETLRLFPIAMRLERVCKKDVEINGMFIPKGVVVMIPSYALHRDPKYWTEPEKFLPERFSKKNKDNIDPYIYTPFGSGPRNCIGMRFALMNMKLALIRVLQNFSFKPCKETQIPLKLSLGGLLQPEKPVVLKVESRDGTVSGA

Large T antigen = Large T antigen (Simian virus 40, UniProt P03070); type: functional, Betapolyomavirus macacae;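 note: Confirmatory-stage PubChem screen for compounds that inhibit SV40 T antigen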
Chain of Large T antigen (P03070 whole entry): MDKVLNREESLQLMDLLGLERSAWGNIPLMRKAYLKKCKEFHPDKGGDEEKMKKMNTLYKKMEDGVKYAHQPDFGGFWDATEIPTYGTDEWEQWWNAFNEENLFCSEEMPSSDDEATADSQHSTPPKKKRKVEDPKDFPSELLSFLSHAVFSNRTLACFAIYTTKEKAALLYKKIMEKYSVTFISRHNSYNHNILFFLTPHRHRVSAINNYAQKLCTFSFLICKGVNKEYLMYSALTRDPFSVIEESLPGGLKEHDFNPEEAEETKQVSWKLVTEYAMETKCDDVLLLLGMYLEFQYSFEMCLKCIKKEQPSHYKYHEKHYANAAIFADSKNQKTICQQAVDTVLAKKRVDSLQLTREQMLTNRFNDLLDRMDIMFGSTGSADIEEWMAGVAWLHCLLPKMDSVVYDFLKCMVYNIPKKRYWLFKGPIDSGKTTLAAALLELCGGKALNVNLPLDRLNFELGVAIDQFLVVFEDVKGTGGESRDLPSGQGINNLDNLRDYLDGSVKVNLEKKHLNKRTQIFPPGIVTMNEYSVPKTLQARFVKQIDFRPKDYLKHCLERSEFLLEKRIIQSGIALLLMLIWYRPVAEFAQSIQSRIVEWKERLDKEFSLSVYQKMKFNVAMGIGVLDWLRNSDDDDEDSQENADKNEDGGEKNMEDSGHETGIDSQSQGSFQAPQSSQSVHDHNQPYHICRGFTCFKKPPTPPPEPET

Cytochrome P450 2D6 = Cytochrome P450 2D6 (Homo sapiens, UniProt P10635);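 note: CYP2D6 member of a cytochrome P450 panel assay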
Chain of Cytochrome P450 2D6 (P10635 whole entry): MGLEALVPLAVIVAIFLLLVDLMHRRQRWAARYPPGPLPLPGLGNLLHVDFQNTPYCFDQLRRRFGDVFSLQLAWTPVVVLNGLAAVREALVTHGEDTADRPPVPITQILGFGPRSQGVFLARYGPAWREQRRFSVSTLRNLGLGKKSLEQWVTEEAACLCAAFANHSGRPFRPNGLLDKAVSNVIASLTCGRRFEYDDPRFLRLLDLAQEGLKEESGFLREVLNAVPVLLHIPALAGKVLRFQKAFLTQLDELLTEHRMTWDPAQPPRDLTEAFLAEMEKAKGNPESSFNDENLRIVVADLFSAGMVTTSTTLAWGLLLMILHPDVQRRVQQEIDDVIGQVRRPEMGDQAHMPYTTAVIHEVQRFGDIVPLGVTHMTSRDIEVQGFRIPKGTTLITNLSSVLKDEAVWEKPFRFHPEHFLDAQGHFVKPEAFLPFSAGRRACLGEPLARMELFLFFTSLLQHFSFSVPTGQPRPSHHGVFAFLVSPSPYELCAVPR

[8] = molecular target: FAD-linked sulfhydryl oxidase ALR (Homo sapiens, UniProt P55789); test: ALR-catalysed DTT oxidation blockers – biochemical, H2O2 detection, luminescence, cherry-pick, dose response (AID 493248)
Chain of FAD-linked sulfhydryl oxidase ALR (P55789 whole entry): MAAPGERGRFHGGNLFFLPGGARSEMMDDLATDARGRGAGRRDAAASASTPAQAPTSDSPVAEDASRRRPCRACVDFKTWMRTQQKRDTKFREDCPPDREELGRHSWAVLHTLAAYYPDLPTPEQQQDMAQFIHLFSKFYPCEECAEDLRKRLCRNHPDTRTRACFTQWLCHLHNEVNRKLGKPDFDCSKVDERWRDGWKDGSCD

Vero [9] = test: cells; type: functional, cell-based; conditions: Chlorocebus sabaeus
Cytochrome P450 1A2 = molecular target: T3, Cytochrome P450 1A2 (Homo sapiens, UniProt P05177);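 note: PubChem cytochrome P450 panel assay, CYP1A2 panel member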
T3 sequence (P05177 whole entry): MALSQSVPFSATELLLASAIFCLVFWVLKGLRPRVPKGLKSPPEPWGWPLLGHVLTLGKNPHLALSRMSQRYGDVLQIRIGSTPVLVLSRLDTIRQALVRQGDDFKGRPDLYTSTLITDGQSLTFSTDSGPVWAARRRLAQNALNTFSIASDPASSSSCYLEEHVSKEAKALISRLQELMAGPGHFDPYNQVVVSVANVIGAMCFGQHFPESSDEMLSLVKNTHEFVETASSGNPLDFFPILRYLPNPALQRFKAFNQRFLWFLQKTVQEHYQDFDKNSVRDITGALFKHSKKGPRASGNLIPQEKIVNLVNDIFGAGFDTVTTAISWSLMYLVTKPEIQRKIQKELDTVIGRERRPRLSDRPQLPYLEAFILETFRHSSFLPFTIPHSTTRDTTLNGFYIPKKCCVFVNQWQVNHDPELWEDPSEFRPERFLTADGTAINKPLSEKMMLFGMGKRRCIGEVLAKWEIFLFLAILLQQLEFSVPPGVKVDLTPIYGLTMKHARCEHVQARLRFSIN

[10] = molecular target: T4, Calpain-2 catalytic subunit (Sus scrofa, UniProt P43367); test: m-calpain protease blockers, concentration series – biochemical, fluorogenic peptide substrate, dose response (AID 1420); type: functional
T4 sequence (P43367 whole entry): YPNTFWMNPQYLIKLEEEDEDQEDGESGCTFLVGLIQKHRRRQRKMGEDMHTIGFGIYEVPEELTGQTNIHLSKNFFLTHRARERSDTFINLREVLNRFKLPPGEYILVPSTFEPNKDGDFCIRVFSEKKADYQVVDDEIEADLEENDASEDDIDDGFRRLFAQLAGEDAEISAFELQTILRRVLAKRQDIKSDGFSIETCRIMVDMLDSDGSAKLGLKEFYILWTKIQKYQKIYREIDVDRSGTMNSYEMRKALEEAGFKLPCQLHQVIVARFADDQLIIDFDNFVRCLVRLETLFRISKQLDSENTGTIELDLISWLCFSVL

[11] = Luminescence Cell-Based Dose Response HTS to Identify Activators of Luciferase Translation or Activity in H4 […] Cells. [Related pubchem assays: 1829 (Project Summary), 1814 (Primary HTS)]; type: functional
[12] = Luminescence Cell-Based Dose Confirmation HTS to Identify Activators of 5'UTR Stem-Loop Driven Alpha-Synuclein mRNA Translation in H4 Neuroglioblastoma Cells. [Related pubchem assays: 1829 (Project Summary), 1814 (Primary HTS)]; type: functional
H4 = test: Luminescence Cell-Based Dose Response HTS to Identify Activators of 5'UTR Stem-Loop Driven Prion Protein mRNA Translation in H4 Neuroglioblastoma Cells. [Related pubchem assays: 1829 (Project Summary), 1814 (Primary HTS)]; type: functional; conditions: Homo sapiens

## O=C(COC(=O)c1ccc(O)cc1)NCCCc1ccccc1
Coagulation factor XII
  IC50: > 50 µM (inactive)
Prothrombin
  IC50: > 50 µM (not active)

## COc1cc(NS(=O)(=O)c2ccc3ccccc3c2)c2ncccc2c1
[1]
  EC50: > 160 µM (inactive)
[2]
  EC50: 3.98 µM (active)
Vero [3]
  CC50: > 25 µM (active)
[4]
  EC50: 1.09 µM (active)
[5]
  EC50: 0.412 µM (active)
Streptococcus
  EC50: 7.28 µM (active)
H9c2
  IC50: > 79 µM (inactive)
[6]
  EC50: 0.342 µM (active)
[7]
  EC50: 0.668 µM (active)

## CCCc1nnc(NC(=O)CCC(=O)N2CCN(c3ccccn3)CC2)s1
Cytochrome P450 3A4
  AC50: inconclusive

## CC(C)C(NC(=O)c1ccc(C(C)(C)C)cc1)C(=O)NCC(c1ccccc1)N(C)C (stereo unspecified)
[7]
  EC50: 0.168 µM (active)

## Cc1onc(-c2c(F)cccc2Cl)c1C(=O)N(C)CC(=O)Nc1cccc(F)c1
[7]
  EC50: 2.11 µM (active)

## COc1ccc(NC2CCCN(C(=O)c3cccc(C(F)(F)F)c3)C2)cc1OC (stereo unspecified)
Large T antigen
  IC50: 44.1 µM (active)

## N=C(NOC(=O)c1ccc(Cl)c([N+](=O)[O-])c1)c1ccccn1
Coagulation factor XII
  IC50: > 50 µM (inactive)

## COc1ccc(-c2nc3cnc(N4CCN(C)CC4)nc3n(CCc3ccccc3)c2=O)cc1
Cytochrome P450 3A4
  AC50: inconclusive
Cytochrome P450 2D6
  AC50: 25.1 µM (inconclusive)

## N#Cc1ccsc1NC(=O)CN1CCN(c2ccc(O)cc2)CC1
Large T antigen
  IC50: 6.44 µM (active)

## CCN(CC)c1ccc(N/C=C2/C(=O)NC(=O)N(c3ccccc3C)C2=O)cc1
Large T antigen
  IC50: > 100 µM (active)
[8]
  AC50: 1.46 µM (active)

## O=C(c1cccc(S(=O)(=O)N2CCc3ccccc32)c1)N1CCN(c2ccccn2)CC1
Vero [3]
  CC50: 18.9 µM (active)
Vero [9]
  IC50: 6.82 µM (active)

## COc1cc(C(=O)N2CCN(C(=O)c3ccccc3)CC2)cc(OC)c1OC
Cytochrome P450 3A4
  AC50: inconclusive
Cytochrome P450 1A2
  AC50: 2.51 µM (inconclusive)

## N#Cc1ccc(C(=O)Nc2ccc(N3CCN(C(=O)c4ccco4)CC3)cc2)c(F)c1
Cytochrome P450 3A4
  AC50: inconclusive

## Cc1cc(C)nc(N=C(N)N(Cc2ccccc2)Cc2ccccc2)n1
[10]
  IC50: > 50 µM (not active)
[7]
  EC50: 1.5 µM (active)

## COc1ccc(S(=O)(=O)N2CCCC2C(=O)Nn2cnnc2)cc1 (stereo unspecified)
Coagulation factor XII
  IC50: > 50 µM (inactive)

## C/C(N)=C(/C#N)C(=O)COC(=O)CC12CC3CC(CC(C3)C1)C2
[10]
  IC50: 12 µM (not active)
[7]
  EC50: 1.5 µM (active)

## CCOC(=O)/C(C#N)=C/N=c1/ccc(C)cn1C
[11]
  EC50: 23.8 µM (active)
[12]
  EC50: 53.5 µM (active)
Coagulation factor XII
  IC50: > 50 µM (inconclusive)
H4
  EC50: > 120 µM (not active)

## C/C(=N/OCO/N=C(\C)c1ccccc1)c1ccccc1
Vero [9]
  IC50: > 25 µM (active)
